Laboratory results taken from paper PMC10003010, “A Unique In Vitro Assay to Investigate ABCB4 Transport Function” (International Journal of Molecular Sciences, 2023).
Entries after “also recorded” stand apart in the source; their conditions may differ. Like-named read-outs stand apart in the source and are kept apart here.

Experiments:
[1] = ref FDA Liver Toxicity Knowledge Base (LTKB); cited from earlier work
ABCB4 [2] = details: read-out: In Vitro Literature Data (IC50), cited from earlier work
ABCB1 = ABCB1 (Homo sapiens, UniProt P08183); details: Y/N; cited from earlier work
human ABCB4 = biological target: T1, human ABCB4 (Homo sapiens, UniProt P21439); assay: Inhibition of ABCB4-mediated digoxin transport, bidirectional assay in Abcb1KO-MDCKII-ABCB4 cells; format: cell-based
T1 construct: expressed in transfected cells; host or cells: Abcb1KO-MDCKII (canine kidney, Abcb1 knockout), lentiviral transduction, single clone

ABCB4 [3] = details: cited from earlier work; for In Vitro Literature Data, inhibitor (IC50 value was not determined): digoxin transport in ABCB4-transfected LLC-PK1 cells
[4] = digoxin 1 µM probe, ABCB4 cell monolayers, samples at 3 h, read-out: IC50 (µM), Based on Digoxin ER

T1 sequence (P21439 1-1279 isoform P21439-2): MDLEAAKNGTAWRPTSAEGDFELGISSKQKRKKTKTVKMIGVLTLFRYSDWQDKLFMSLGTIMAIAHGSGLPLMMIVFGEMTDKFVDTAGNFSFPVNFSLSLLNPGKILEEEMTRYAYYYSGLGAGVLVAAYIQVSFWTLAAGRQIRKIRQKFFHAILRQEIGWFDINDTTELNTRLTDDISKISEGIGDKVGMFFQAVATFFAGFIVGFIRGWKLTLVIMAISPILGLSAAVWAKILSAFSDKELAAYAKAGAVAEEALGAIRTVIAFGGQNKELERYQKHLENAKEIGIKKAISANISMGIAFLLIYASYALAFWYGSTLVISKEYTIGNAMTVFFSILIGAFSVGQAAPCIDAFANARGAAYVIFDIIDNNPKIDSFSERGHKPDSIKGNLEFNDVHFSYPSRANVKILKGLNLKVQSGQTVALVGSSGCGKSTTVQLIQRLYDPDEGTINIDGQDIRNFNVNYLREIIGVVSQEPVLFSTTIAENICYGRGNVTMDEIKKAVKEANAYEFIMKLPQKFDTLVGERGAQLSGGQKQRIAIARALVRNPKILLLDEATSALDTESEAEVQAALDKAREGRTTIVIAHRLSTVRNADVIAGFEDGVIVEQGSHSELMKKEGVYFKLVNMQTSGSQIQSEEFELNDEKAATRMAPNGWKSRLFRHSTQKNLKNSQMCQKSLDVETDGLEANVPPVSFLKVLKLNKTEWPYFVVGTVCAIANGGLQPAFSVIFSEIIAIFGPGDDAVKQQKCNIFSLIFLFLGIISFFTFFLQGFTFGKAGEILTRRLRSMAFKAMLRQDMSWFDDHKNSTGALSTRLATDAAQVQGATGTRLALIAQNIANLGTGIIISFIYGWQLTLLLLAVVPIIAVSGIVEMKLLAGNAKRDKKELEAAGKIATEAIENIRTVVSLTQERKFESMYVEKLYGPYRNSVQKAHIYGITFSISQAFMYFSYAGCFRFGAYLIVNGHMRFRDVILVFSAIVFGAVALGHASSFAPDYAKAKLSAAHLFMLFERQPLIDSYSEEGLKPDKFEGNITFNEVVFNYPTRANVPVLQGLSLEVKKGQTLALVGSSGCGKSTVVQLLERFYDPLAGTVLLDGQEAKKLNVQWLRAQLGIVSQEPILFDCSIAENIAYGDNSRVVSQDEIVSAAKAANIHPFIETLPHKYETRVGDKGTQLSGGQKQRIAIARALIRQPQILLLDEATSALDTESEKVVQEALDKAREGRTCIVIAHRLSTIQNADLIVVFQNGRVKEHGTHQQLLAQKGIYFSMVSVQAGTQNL
ABCB1, sequence (P08183 whole entry): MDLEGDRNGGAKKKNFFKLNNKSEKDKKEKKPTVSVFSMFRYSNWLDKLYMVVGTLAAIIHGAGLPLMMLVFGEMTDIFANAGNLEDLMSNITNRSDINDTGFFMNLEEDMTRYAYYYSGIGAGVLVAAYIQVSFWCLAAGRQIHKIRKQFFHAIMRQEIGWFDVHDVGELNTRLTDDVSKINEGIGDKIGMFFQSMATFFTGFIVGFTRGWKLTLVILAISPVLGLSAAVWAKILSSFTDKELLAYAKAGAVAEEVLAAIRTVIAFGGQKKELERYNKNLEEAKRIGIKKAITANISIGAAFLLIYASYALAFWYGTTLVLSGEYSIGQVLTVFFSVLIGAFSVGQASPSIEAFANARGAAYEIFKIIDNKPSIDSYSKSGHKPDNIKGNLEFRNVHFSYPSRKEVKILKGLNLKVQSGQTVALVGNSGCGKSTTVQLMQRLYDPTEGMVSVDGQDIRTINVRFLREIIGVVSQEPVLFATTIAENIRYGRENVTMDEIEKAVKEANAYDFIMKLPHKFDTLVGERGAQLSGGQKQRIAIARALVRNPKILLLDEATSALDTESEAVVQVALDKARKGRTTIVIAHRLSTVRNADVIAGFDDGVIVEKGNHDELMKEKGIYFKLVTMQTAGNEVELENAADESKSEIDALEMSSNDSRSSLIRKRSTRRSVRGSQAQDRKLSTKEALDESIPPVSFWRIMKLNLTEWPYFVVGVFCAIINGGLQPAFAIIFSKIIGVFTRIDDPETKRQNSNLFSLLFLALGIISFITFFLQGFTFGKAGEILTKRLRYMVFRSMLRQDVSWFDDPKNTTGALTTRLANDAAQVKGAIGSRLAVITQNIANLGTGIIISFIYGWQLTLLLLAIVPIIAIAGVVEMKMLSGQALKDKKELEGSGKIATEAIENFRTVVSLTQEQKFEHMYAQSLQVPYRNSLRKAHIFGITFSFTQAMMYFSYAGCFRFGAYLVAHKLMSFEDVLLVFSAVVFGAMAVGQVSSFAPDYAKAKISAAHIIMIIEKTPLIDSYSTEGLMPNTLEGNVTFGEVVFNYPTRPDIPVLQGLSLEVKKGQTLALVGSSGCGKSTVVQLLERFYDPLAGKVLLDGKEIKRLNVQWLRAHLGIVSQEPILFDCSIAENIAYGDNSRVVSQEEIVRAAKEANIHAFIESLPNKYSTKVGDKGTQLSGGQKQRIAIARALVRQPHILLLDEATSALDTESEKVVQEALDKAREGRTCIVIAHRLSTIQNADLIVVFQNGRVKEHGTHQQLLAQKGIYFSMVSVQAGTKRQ

Q: Which “DILI Concern” value [1] does the source give for `CC(C)c1nc(CN(C)C(=O)N[C@H](C(=O)N[C@@H](Cc2ccccc2)C[C@H](O)[C@H](Cc2ccccc2)NC(=O)OCc2cncs2)C(C)C)cs1` [ritonavir] here?
A: Most DILI concern

Q: Which results are given for `NC(=O)N1c2ccccc2C=Cc2ccccc21` [carbamazepine]?
A: ABCB1 Interactor (ABCB1): Conflicting information [50]; DILI Concern [1]: Most DILI concern; IC50 (human ABCB4; [4]): > 80 µM; IC50 (ABCB4 [2]; human primary hepatocyte assay): > 300 µM

Q: What does the source list for `COc1ccnc(C[S+]([O-])c2nc3ccc(OC(F)F)cc3[nH]2)c1OC` (stereo not drawn) [pantoprazole]?
A: DILI Concern [1]: Less DILI concern; Effect on ABCB4-mediated digoxin transport, in words (human ABCB4; digoxin 1 µM probe): no interaction; IC50 (human ABCB4; [4]): > 10 µM

Q: For `C=C[C@@H]1C[C@]1(NC(=O)[C@@H]1C[C@@H](Oc2ncc(OC)c3ccc(Cl)cc23)CN1C(=O)[C@@H](NC(=O)OC(C)(C)C)C(C)(C)C)C(=O)NS(=O)(=O)C1CC1` [asunaprevir], which “Effect on ABCB4-mediated digoxin transport, in words” value (“Effect” for short) (human ABCB4; digoxin 1 µM probe) is on record?
A: ABCB4 inhibitors

Q: With `C/C=C/C[C@@H](C)C(=O)[C@H]1C(=O)N[C@@H](C(C)C)C(=O)N(C)CC(=O)N(C)[C@@H](CC(C)C)C(=O)N[C@@H](C(C)C)C(=O)N(C)[C@@H](CC(C)C)C(=O)N[C@@H](C)C(=O)N[C@H](C)C(=O)N(C)[C@@H](CC(C)C)C(=O)N(C)[C@@H](CC(C)C)C(=O)N(C)[C@@H](C(C)C)C(=O)N1C` [valspodar] as the compound, how does the “In Vitro Literature Data, inhibitor (IC50 value was not determined)” value (ABCB4 [3]) read?
A: Inhibitor ^d [16]

Q: What about the IC50 (human ABCB4) of the same compound?
A: 0.15 µM

Q: What about the “Effect” value (human ABCB4; digoxin 1 µM probe) of the same compound?
A: potent ABCB4 inhibitor

Q: Which “In Vitro Literature Data, inhibitor (IC50 value was not determined)” value (ABCB4 [3]) does the source give for `COc1ccc(CCN(C)CCCC(C#N)(c2ccc(OC)c(OC)c2)C(C)C)cc1OC` (stereo not drawn) [verapamil] here?
A: inhibitor

Q: What does the source list for `OC(Cn1cncn1)(Cn1cncn1)c1ccc(F)cc1F` [fluconazole]?
A: DILI Concern [1]: Most DILI concern; IC50 (human ABCB4): > 3 µM; IC50 (ABCB4 [2]; human primary hepatocyte assay): > 300 µM

Q: With `COc1ccccc1OCCNCC(O)COc1cccc2[nH]c3ccccc3c12` (stereo not drawn) [carvedilol] as the compound, how does the “DILI Concern” value [1] read?
A: Less DILI concern

Q: What about the IC50 (human ABCB4; [4]) of the same compound?
A: 0.7 µM

Q: For `Cc1cccc(C)c1OCC(=O)N[C@@H](Cc1ccccc1)[C@@H](O)C[C@H](Cc1ccccc1)NC(=O)[C@H](C(C)C)N1CCCNC1=O` [lopinavir], which “Effect” value (human ABCB4; digoxin 1 µM probe) is on record?
A: ABCB4 inhibitors

Q: And the IC50 (human ABCB4; [4])?
A: 0.6 µM

Q: Which results are given for `CC(C)(C)NC(=O)[C@@H]1C[C@@H]2CCCC[C@@H]2CN1C[C@@H](O)[C@H](Cc1ccccc1)NC(=O)[C@H](CC(N)=O)NC(=O)c1ccc2ccccc2n1` [saquinavir]?
A: DILI Concern [1]: Less DILI concern; IC50 (human ABCB4; [4]): 1.4 µM

Q: What does the source list for `COCC(=O)O[C@]1(CCN(C)CCCc2nc3ccccc3[nH]2)CCc2cc(F)ccc2[C@@H]1C(C)C` [mibefradil]?
A: Effect on ABCB4-mediated digoxin transport, in words (human ABCB4; digoxin 1 µM probe): strong concentration-dependent inhibitory effect; IC50 (human ABCB4; [4]): 0.4 µM

Q: Which IC50 (human ABCB4; [4]) does the source give for `CCCCc1oc2ccccc2c1C(=O)c1cc(I)c(OCCN(CC)CC)c(I)c1` [amiodarone] here?
A: > 10 µM

Q: Which “DILI Concern” value [1] does the source give for `CN(Cc1cnc2nc(N)nc(N)c2n1)c1ccc(C(=O)N[C@@H](CCC(=O)O)C(=O)O)cc1` [methotrexate] here?
A: Most DILI concern

Q: What about the “Effect” value (human ABCB4; digoxin 1 µM probe) of the same compound?
A: did not detect interaction; also recorded: did not show inhibition

Q: What about the IC50 (human ABCB4; [4]) of the same compound?
A: > 10 µM

Q: And the IC50 (ABCB4 [2]; human primary hepatocyte assay)?
A: 3.1 µM

Q: With ivermectin as the compound, how does the “DILI Concern” value [1] read?
A: Less DILI concern

Q: What about the “In Vitro Literature Data, substrate” value (ABCB4 [3]; LLC-PK1-ABCB4 cells) of the same compound?
A: Substrate [16]

Q: What about the “Effect” value (human ABCB4; digoxin 1 µM probe) of the same compound?
A: ABCB4 inhibitor

Q: What about the IC50 (human ABCB4; [4]) of the same compound?
A: 0.53 µM

Q: With `CCc1oc2ccccc2c1C(=O)c1cc(Br)c(O)c(Br)c1` [benzbromarone] as the compound, how does the “DILI Concern” value [1] read?
A: Most DILI concern

Q: And the IC50 (human ABCB4)?
A: 19.9 µM

Q: And the IC50 (ABCB4 [2]; human primary hepatocyte assay)?
A: 0.4 µM

Q: Which results are given for `O[C@@H](COc1cccc2ncccc12)CN1CCN([C@@H]2c3ccccc3[C@@H]3[C@H](c4ccccc42)C3(F)F)CC1` [zosuquidar]?
A: Effect on ABCB4-mediated digoxin transport, in words (human ABCB4; digoxin 1 µM probe): strong concentration-dependent inhibitory effect; IC50 (human ABCB4; [4]): 0.07 µM

Q: With `COc1cc2c(cc1OC)CN(CCc1ccc(NC(=O)c3cccc4c(=O)c5cccc(OC)c5[nH]c34)cc1)CC2` [elacridar] as the compound, how does the “Effect” value (human ABCB4; digoxin 1 µM probe) read?
A: strong concentration-dependent inhibitory effect

Q: And the IC50 (human ABCB4; [4])?
A: 0.15 µM
